From article PMC2409929 (British Journal of Cancer, 2004)

Test system: patients with metastatic colorectal cancer
Experiment: Randomised phase II trial: tumour response (WHO criteria) and time-to-event efficacy
Settings: for Complete response, % / Duration of response and stabilisation, median (min–max) / Overall response (CR+PR), % / Partial response, % / Progressive disease, % / Response not evaluable, % / Stable disease, % / Survival, median (min–max) / Time to progression, median (min–max) / Time to treatment failure, median (min–max): intent-to-treat
[1] = arm A (350 mg m^−2 90-min i.v. q3 weeks)
[2] = arm B (125 mg m^−2 90-min i.v. weekly × 4 q6 weeks)
[3] = arm C (250 mg m^−2 90-min i.v. q2 weeks)
[4] = arm D (10 mg m^−2 day^−1 14-day continuous infusion q3 weeks)

Method: A total of 17 centres in Europe participated in this study: two in Denmark, one in Ireland, four in The Netherlands, five in Norway, two in Sweden and three in Russia. […] Randomisation was performed centrally by Aventis Pharma R&D, Antony Cedex, France. […] A total of 37 evaluable patients per arm had to be included.
Pretreatment evaluation included a complete medical history and complete physical examination. Before each course, blood chemistry and haematology profiles were checked. Haematology was checked weekly. […] An external response review committee (ERRC) was established during the study to perform assessments of tumour response. […] Adverse events that were not reported according to NCI-CTC were graded as mild, moderate, severe, or life threatening.
The primary efficacy variable was response rate; overall response was defined as complete plus partial response. The secondary efficacy variables were the duration of response and stabilisation, time to progression, time to treatment failure and the overall survival. The differences between the four treatment groups were explored with the χ^2 test. Subsequent statistical tests were performed only in the case of evidence of difference to provide the significance level of difference. The Fisher exact test was used to compare treatment groups on categorical variables. For continuous variables, if a normal distribution could be assumed, Student's t-tests were used. Otherwise, they were analysed by nonparametric methods. Exact confidence intervals were calculated using binominal distribution probability. Censored data were analysed using the Kaplan–Meier method; the log-rank test was used to compare the groups. Differences in pharmacokinetic parameters between the four treatment arms were evaluated using one-way analysis of variance (ANOVA) combined with least significant difference (LSD) method (P was set at 0.05) and the Student's t-test was used to calculate the P-value of significant differences. The Pearson correlation coefficient (r) was calculated between dose and pharmacokinetic parameters. Statistical analyses were performed with SPSS (version 10.0.7 for Windows, SPSS Inc.). All tests for significance were two-tailed.

## CCc1c2c(nc3ccc(OC(=O)N4CCC(N5CCCCC5)CC4)cc13)-c1cc3c(c(=O)n1C2)COC(=O)[C@]3(O)CC [irinotecan]
[1]
  Patients who discontinued treatment because of progressive disease: 81%
  Complete response, %: 0%
  Duration of response and stabilisation, median (min–max): 5.9 (0.8–12.7) Months
  Overall response (CR+PR), %: 7%
  Partial response, %: 7%
  Progressive disease, %: 46%
  Response not evaluable, %: 2%
  Stable disease, %: 44%
  Survival, median (min–max): 9.4 (1.0–15.3) Months
  Time to progression, median (min–max): 2.7 (1.0–12.8) Months
  Time to treatment failure, median (min–max): 2.7 (1.0–12.8) Months
[2]
  Patients who discontinued treatment because of progressive disease: 57%
  Complete response, %: 0%
  Duration of response and stabilisation, median (min–max): 3.9 (1.0–13.0) Months
  Overall response (CR+PR), %: 5%
  Partial response, %: 5%
  Progressive disease, %: 19%
  Response not evaluable, %: 14%
  Stable disease, %: 62%
  Survival, median (min–max): 7.1 (0.6–13.5) Months
  Time to treatment failure, median (min–max): 2.3 (0.6–8.3) Months
[3]
  Patients who discontinued treatment because of progressive disease: 61%
  Complete response, %: 0%
  Duration of response and stabilisation, median (min–max): 5.3 (1.3–8.9) Months
  Overall response (CR+PR), %: 11%
  Partial response, %: 11%
  Progressive disease, %: 33%
  Response not evaluable, %: 2%
  Stable disease, %: 54%
  Survival, median (min–max): 8.6 (0.7–16.7) Months
  Time to progression, median (min–max): 3.8 (0.0–8.9) Months
  Time to treatment failure, median (min–max): 3.2 (0.4–7.1) Months
[4]
  Patients who discontinued treatment because of progressive disease: 55%
  Complete response, %: 2%
  Duration of response and stabilisation, median (min–max): 3.4 (1.3–6.9) Months
  Overall response (CR+PR), %: 5%
  Partial response, %: 2%
  Progressive disease, %: 34%
  Response not evaluable, %: 18%
  Stable disease, %: 43%
  Survival, median (min–max): 6.4 (1.1–15.1) Months
  Time to progression, median (min–max): 2.8 (0.0–7.0) Months
  Time to treatment failure, median (min–max): 1.7 (0.5–7.1) Months
Range across the four arms A–D
  Median survival: 6.4–9.4 months
  Overall response rates: 5–11%
  Time to progression: 2.7–3.8 months
  Time to treatment failure: 1.7–3.2 months
